The test concerns the target T1, HDAC6 (Homo sapiens, UniProt Q9UBN7).
T1 construct: Full length human recombinant HDAC6 protein was expressed in baculoviral system; made in house; host or cells: baculoviral system
T1 sequence (Q9UBN7 1-1215): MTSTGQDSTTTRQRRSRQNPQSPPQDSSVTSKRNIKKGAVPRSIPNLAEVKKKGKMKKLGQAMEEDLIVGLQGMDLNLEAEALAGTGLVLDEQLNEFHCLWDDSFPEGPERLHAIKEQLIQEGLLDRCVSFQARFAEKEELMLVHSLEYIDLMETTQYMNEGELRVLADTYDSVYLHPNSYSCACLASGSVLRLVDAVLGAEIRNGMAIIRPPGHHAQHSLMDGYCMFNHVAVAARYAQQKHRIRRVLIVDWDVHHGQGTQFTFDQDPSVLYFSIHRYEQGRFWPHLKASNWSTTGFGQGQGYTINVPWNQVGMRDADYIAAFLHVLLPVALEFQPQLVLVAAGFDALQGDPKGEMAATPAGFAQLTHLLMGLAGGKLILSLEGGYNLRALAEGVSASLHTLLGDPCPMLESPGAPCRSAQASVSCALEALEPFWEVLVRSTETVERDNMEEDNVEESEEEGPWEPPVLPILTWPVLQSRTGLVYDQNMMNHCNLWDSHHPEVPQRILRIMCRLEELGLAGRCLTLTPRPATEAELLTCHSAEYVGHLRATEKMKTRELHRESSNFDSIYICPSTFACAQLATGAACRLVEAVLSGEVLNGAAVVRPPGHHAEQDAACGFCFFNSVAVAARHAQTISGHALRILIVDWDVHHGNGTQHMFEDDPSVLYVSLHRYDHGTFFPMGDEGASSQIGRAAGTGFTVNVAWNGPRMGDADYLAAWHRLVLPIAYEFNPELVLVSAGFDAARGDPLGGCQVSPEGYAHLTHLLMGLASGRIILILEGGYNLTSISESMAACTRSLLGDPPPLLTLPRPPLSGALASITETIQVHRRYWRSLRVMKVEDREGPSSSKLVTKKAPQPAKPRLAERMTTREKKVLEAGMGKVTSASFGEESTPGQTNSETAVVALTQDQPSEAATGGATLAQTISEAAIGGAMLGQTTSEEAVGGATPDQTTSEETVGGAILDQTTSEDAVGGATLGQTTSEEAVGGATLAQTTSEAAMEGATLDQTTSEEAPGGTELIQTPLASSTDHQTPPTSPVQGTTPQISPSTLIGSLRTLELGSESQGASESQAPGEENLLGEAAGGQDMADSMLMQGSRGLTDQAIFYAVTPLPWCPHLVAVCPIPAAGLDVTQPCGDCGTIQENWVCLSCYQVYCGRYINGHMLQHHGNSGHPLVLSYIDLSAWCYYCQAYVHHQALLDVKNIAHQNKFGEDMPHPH
Kind of test: In vitro Histone Deacetylase Assay (enzymatic HDAC6 electrophoretic mobility shift assay). Format: biochemical. The following applies: full length human recombinant HDAC6, 1 nM enzyme, 2 μM peptide substrate RHKK(Ac)-NH2, 25° C.; read-out: HDAC6 activity range. A digest of the protocol:
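Deacetylation was read by microfluidic mobility shift as product/(substrate+product) peak ratio and normalised to 0% and 100% inhibition controls. Reactions used 1 nM baculovirus-expressed full-length human HDAC6 and 2 μM labelled RHKK(Ac)-NH2 in pH 7.5 HEPES buffer with 1% DMSO at 25 °C. IC50 was from 4-parameter fits of 12 concentrations.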

The structures appear in SMILES notation.

This note sets out measurements from patent US9630922B2, “3-spiro-7-hydroxamic acid tetralins as HDAC inhibitors” (Forma Therapeutics, Inc., priority 2015, dated 2017).

On to `O=C(NO)c1ccc2c(c1)CC[C@@]1(CCN(C3CCCC3)C1=O)C2` [Compound I-164, (S)-1′-cyclopentyl-N-hydroxy-2′-oxo-3,4-dihydro-1H-spiro[naphthalene-2,3′-pyrrolidine]-6-carboxamide], for which the IC50 lay in the range of 100 to 500 nM.
With `COc1cccc(N2CC[C@@]3(CCc4cc(C(=O)NO)ccc4C3)C2=O)c1F` [Compound I-126, (2S)-1′-(2-fluoro-3-methoxyphenyl)-N-hydroxy-2′-oxo-3,4-dihydro-1H-spiro[naphthalene-2,3′-pyrrolidine]-6-carboxamide] the figure was no more than 100 nM; with `COc1ccc(N2CC[C@]3(CCc4cc(C(=O)NO)ccc4C3)C2=O)cc1` [Compound I-124, (R)-N-hydroxy-1′-(4-methoxyphenyl)-2′-oxo-3,4-dihydro-1H-spiro[naphthalene-2,3′-pyrrolidine]-6-carboxamide], no more than 100 nM.
With `O=C(NO)c1ccc2c(c1)CCC1(CCCN(CC3COC3)C1=O)C2` (single isomer, unassigned) [Compound I-196] the figure was no more than 100 nM; with `Cc1ccc(CN2CCC3(CCc4cc(C(=O)NO)ccc4C3)C2=O)cc1` (centres unmarked) [Compound I-8, N-hydroxy-1′-(4-methylbenzyl)-2′-oxo-3,4-dihydro-1H-spiro[naphthalene-2,3′-pyrrolidine]-6-carboxamide], 100 to 500 nM.
In the case of `CC(C)c1ccc(N2CC[C@@]3(CCc4cc(C(=O)NO)ccc4C3)C2=O)cn1` [Compound I-101, (S)-N-hydroxy-1′-(6-isopropylpyridin-3-yl)-2′-oxo-3,4-dihydro-1H-spiro[naphthalene-2,3′-pyrrolidine]-6-carboxamide], the IC50 was no more than 100 nM.
Consider `Cc1ccc(N2CC[C@@]3(CCc4cc(C(=O)NO)ccc4C3)C2=O)cn1` [Compound I-134, (S)-N-hydroxy-1′-(6-methylpyridin-3-yl)-2′-oxo-3,4-dihydro-1H-spiro[naphthalene-2,3′-pyrrolidine]-6-carboxamide], for which the IC50 is no more than 100 nM.
With `O=C(NO)c1ccc2c(c1)CC[C@]1(CCN(Cc3cc(Cl)ccc3Cl)C1=O)C2` [Compound I-48, (R)-1′-(2,5-dichlorobenzyl)-N-hydroxy-2′-oxo-3,4-dihydro-1H-spiro[naphthalene-2,3′-pyrrolidine]-6-carboxamide] the figure was no more than 100 nM.
As for `O=C(NO)c1ccc2c(c1)CC[C@@]1(CCN(c3cnc4ccccc4c3)C1=O)C2` [Compound I-102, (S)-N-hydroxy-2′-oxo-1′-(quinolin-3-yl)-3,4-dihydro-1H-spiro[naphthalene-2,3′-pyrrolidine]-6-carboxamide], the figure is no more than 100 nM.
For `CC(C)n1c(CN2CC[C@]3(CCc4cc(C(=O)NO)ccc4C3)C2=O)nc2ccccc21` [Compound I-45], the IC50 is no more than 100 nM.
As for `O=C(NO)c1ccc2c(c1)CC[C@]1(CCCN(C3CCCC3)C1=O)C2` [Compound I-200, (S)-1′-cyclopentyl-N-hydroxy-2′-oxo-3,4-dihydro-1H-spiro[naphthalene-2,3′-piperidine]-6-carboxamide], the figure is no more than 100 nM; as for `O=C(NO)c1ccc2c(c1)CC[C@]1(CCN(Cc3ccc4nonc4c3)C1=O)C2` [Compound I-42, (R)-1′-(benzo[c][1,2,5]oxadiazol-5-ylmethyl)-N-hydroxy-2′-oxo-3,4-dihydro-1H-spiro[naphthalene-2,3′-pyrrolidine]-6-carboxamide], no more than 100 nM; as for `O=C(NO)c1ccc2c(c1)CC[C@]1(CCN(Cc3cnc(Cl)s3)C1=O)C2` [Compound I-30, (R)-1′-((2-chlorothiazol-5-yl)methyl)-N-hydroxy-2′-oxo-3,4-dihydro-1H-spiro[naphthalene-2,3′-pyrrolidine]-6-carboxamide], no more than 100 nM.
As for `O=C(NO)c1ccc2c(c1)CC[C@]1(CC(=O)N(c3ccccn3)C1)C2` [Compound I-229, (R)-N-hydroxy-5′-oxo-1′-(pyridin-2-yl)-3,4-dihydro-1H-spiro[naphthalene-2,3′-pyrrolidine]-6-carboxamide], the figure is no more than 100 nM.
